In one assay the target is T1, plasma kallikrein (Homo sapiens, UniProt P03952).
T1 construct: from tissue
Kind of assay: Neat human plasma assay, FXIIa contact pathway-activated, PFR-AMC substrate. The settings on record: citrated human plasma 78% final, 10 nM human FXIIa, 100 μM PFR-AMC; read-out: Human Plasma Assay: IC90. The assay is classed as biochemical. In short, it runs like this: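 Compound inhibition of plasma kallikrein measured as PFR-AMC (100 μM) cleavage rate over 5 min at room temperature in 78% citrated human plasma activated with 10 nM FXIIa (Tris pH 7.5 buffer). IC50/IC90 from 4-parameter fit of rate versus inhibitor concentration.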

Assay [1] has as its target human activated kallikrein enzyme (Homo sapiens, UniProt P03952). Kind of assay: Plasma kallikrein inhibition, fluorogenic PFR-AMC substrate, 500 pM activated kallikrein format. The class given is biochemical. To be noted: 500 pM activated kallikrein, 300 uM PFR-AMC, 30 min preincubation, 10 min reaction; read-out: Primary Dose Response Assay: Average EC50. In short, it runs like this: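 Fluorogenic readout (ex 380 / em 460 nm) after 10 min room-temperature reaction with 300 uM Pro-Phe-Arg-AMC substrate, following 30 min preincubation of inhibitors with 500 pM enzyme. Buffer: Tris pH 7.5, EDTA, NaCl, PEG-400, Triton X-100. Values given as EC50 ranges.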

Sequence of human activated kallikrein enzyme (P03952 391-638 limits assumed): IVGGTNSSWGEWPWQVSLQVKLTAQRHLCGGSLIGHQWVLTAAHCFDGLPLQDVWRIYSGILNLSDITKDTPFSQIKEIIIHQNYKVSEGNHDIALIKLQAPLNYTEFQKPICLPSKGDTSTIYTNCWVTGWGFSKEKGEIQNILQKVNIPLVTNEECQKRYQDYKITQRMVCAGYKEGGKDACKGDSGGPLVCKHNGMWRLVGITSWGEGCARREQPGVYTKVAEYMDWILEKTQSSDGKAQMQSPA
Sequence of human activated kallikrein enzyme (P03952 20-390 partner limits assumed): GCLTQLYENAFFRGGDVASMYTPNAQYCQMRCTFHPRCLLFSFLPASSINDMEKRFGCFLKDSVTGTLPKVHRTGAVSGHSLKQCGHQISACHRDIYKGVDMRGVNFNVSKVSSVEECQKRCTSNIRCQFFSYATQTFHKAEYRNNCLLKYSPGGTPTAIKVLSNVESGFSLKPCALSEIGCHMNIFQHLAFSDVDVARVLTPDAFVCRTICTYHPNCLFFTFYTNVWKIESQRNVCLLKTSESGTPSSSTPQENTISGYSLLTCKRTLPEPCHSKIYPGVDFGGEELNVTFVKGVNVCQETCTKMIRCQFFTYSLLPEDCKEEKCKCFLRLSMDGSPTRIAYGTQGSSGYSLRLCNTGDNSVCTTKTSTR
T1 sequence (P03952 391-638 limits assumed): as the sequence (P03952 391-638 limits assumed) above
T1 sequence (P03952 20-390 partner limits assumed): as the sequence (P03952 20-390 partner limits assumed) above

As for `Cc1ccnc([C@H]2C[C@@H]2C(=O)Nc2cc(NCc3cn4cc(C5CC5)cc(N5CC(=O)N(C)C5=O)c4n3)c(C(F)(F)F)nn2)n1` [Example I-640, (1S,2S)—N-(5-(((6-cyclopropyl-8-(3-methyl-2,4-dioxoimidazolidin-1-yl)imidazo[1,2-a]pyridin-2-yl)methyl)amino)-6-(trifluoromethyl)pyridazin-3-yl)-2-(4-methylpyrimidin-2-yl)cyclopropane-1-carboxamide], the IC90 at plasma kallikrein was under 400 nM. The EC50 in assay [1] was under 1 nM.
With `CN1C(=O)CN(c2cc(C3CC3)cn3cc(CN(C)c4cnnc(NC(=O)[C@H]5C[C@@H]5c5cccc(Cl)c5)c4)nc23)C1=O` [Example I-641, (1S,2S)-2-(3-chlorophenyl)-N-(5-(((6-cyclopropyl-8-(3-methyl-2,4-dioxoimidazolidin-1-yl)imidazo[1,2-a]pyridin-2-yl)methyl)(methyl)amino)pyridazin-3-yl)cyclopropane-1-carboxamide], at plasma kallikrein, the IC90 was 400 to 1500 nM. Further, the half-maximal effective concentration (EC50) in assay [1] was under 1 nM.
On the same counts, the results for `O=C(Nc1cc(NCc2cn3cc(C4CC4)cc(N4CCNCC4=O)c3n2)ncn1)[C@H]1C[C@@H]1c1cccc(Cl)c1` [Example I-647, (1S,2S)-2-(3-chlorophenyl)-N-(6-(((6-cyclopropyl-8-(2-oxopiperazin-1-yl)imidazo[1,2-a]pyridin-2-yl)methyl)amino)pyrimidin-4-yl)cyclopropane-1-carboxamide] are 400 to 1500 nM and under 1 nM.
Turning to `Cc1ccnc([C@H]2C[C@@H]2C(=O)Nc2cc(N[C@H](C)c3cn4cc(C(C)C)cc(N5CC(=O)N(C)C5=O)c4n3)ncn2)n1` [Example I-679, (1S,2S)—N-(6-(((R)-1-(6-isopropyl-8-(3-methyl-2,4-dioxoimidazolidin-1-yl)imidazo[1,2-a]pyridin-2-yl)ethyl)amino)pyrimidin-4-yl)-2-(4-methylpyrimidin-2-yl)cyclopropane-1-carboxamide], at plasma kallikrein, the IC90 was under 400 nM. Besides, in assay [1], the EC50 was under 1 nM.

The values above are taken from patent US20240228488A1 (TAKEDA PHARMACEUTICAL COMPANY LIMITED, priority 2021, published 2024).
